Data reported in patent US11089783B2, “2-(het)aryl-substituted fused heterocycle derivatives as pesticides” (Bayer Aktiengesellschaft, priority 2017, dated 2021).

Legend:
Format in all cases: in vivo
Phaedon cochleariae [1] = experiment: Phaedon cochleariae spray test (PHAECO), Chinese cabbage leaf discs; details: for pest or weed control at 100 g/ha: 7 days (7 dat), read-out: efficacy
Procedure: (§1) [table] To produce a suitable active ingredient formulation, 1 part by weight of active ingredient is dissolved with the specified parts by weight of solvent and made up to the desired concentration with water containing an emulsifier concentration of 1000 ppm. To produce further test concentrations, the formulation is diluted with emulsifier-containing water. Discs of Chinese cabbage leaves (Brassica pekinensis) are sprayed with an active ingredient formulation of the desired concentration and, after drying, populated with larvae of the mustard beetle (Phaedon cochleariae). After 7 days, the efficacy in % is determined. 100% means that all the beetle larvae have been killed; 0% means that no beetle larvae have been killed. [table] To produce an appropriate active ingredient formulation, 1 part by weight of active ingredient is dissolved with the stated parts by weight of solvent and made up with water containing an emulsifier concentration of 1000 ppm until the desired concentration is attained. For production of further test concentrations, the mixture is diluted with emulsifier-containing water. Discs of chinese cabbage leaves (Brassica pekinensis) are sprayed with an active ingredient formulation of the desired concentration and, after drying, populated with larvae of the mustard beetle (Phaedon cochleariae). After the desired time, the efficacy in % is determined. 100% means that all beetle larvae have been killed; 0% means that no beetle larvae have been killed.

Nilaparvata lugens = Nilaparvata lugens spray test (NILALU); details: 4 dat; for % efficacy / Emax at 20 g/ha: 20 g/ha
Procedure: (§2) [table] To produce an appropriate active ingredient formulation, 1 part by weight of active ingredient is dissolved with the specified parts by weight of solvent and made up with water containing an emulsifier concentration of 1000 ppm until the desired concentration is attained. To produce further test concentrations, the mixture is diluted with emulsifier-containing water. If addition of ammonium salts or/and penetrants is required, these are each added to the preparation solution in a concentration of 1000 ppm. Rice plants (Oryza sativa) are sprayed with an active ingredient formulation of the desired concentration and then populated with larvae of the brown planthopper (Nilaparvata lugens). After the desired time, the efficacy in % is determined. 100% means that all planthoppers have been killed; 0% means that no planthoppers have been killed.

Lucilia cuprina = Lucilia cuprina test; details: 48 h, L1 larvae, after 2 days, read-out: efficacy (kill)
Procedure: Solvent: dimethyl sulfoxide To produce a suitable active ingredient formulation, 10 mg of active ingredient are mixed with 0.5 ml of dimethyl sulfoxide, and the concentrate is diluted with water to the desired concentration. About 20 L1 larvae of the Australian sheep blowfly (Lucilia cuprina) are transferred into a test vessel containing minced horsemeat and the active ingredient formulation of the desired concentration. After 2 days, the kill in % is determined. 100% means that all the larvae have been killed; 0% means that no larvae have been killed.

Nezara viridula = Nezara viridula spray test (NEZARA / NEZAVI); details: 4 dat; for % efficacy: 500 g/ha
Procedure: as §2, with “Barley” for “Rice”, “(Hordeum vulgare) infected with larvae of the southern green shield bug (Nezara viridula)” for “(Oryza sativa)”, “concentration.” for “concentration and then populated with larvae of the brown planthopper (Nilaparvata lugens).”, “bugs” for “planthoppers”

Myzus persicae [2] = experiment: Myzus persicae oral test; details: 120 h, after 5 days, read-out: efficacy
Procedure: [table] To produce a suitable active ingredient formulation, 1 part by weight of active ingredient is dissolved with the stated parts by weight of solvent and made up to the desired concentration with water. 50 μl of the active ingredient preparation are transferred into microtitre plates and made up to a final volume of 200 μl with 150 μl of IPL41 insect medium (33%+15% sugar). Subsequently, the plates are sealed with parafilm, which a mixed population of green peach aphids (Myzus persicae) within a second microtitre plate is able to puncture and imbibe the solution. After 5 days, the efficacy in % is determined. 100% means that all the aphids have been killed; 0% means that no aphids have been killed.

Phaedon cochleariae [3] = experiment: Phaedon cochleariae spray test (PHAECO S), cabbage leaves; details: 20 ppm, 7 dat
Procedure: as §2, with “Cabbage leaves (Brassica oleracea)” for “Rice plants (Oryza sativa)”, “and” for “and then”, “mustard beetle (Phaedon cochleariae).” for “brown planthopper (Nilaparvata lugens).”, “kill” for “efficacy”, “beetle larvae” for “planthoppers”

Myzus persicae [4] = experiment: Myzus persicae spray test (MYZUPE), Chinese cabbage leaf discs; details: Myzus persicae, foliar, 120 h; for pest or weed control at 100 g/ha / pest or weed control at 20 g/ha: 5 days (5 dat), read-out: efficacy
Procedure: as §1, with “pekinensis) infested by all stages of the green peach aphid (Myzus persicae)” for “pekinensis)”, “concentration.” for “concentration and, after drying, populated with larvae of the mustard beetle (Phaedon cochleariae).”, “5” for “7”, “aphids” for “beetle larvae”

Meloidogyne incognita = Meloidogyne incognita test (MELGIN); details: 20 ppm, 14 days (14 dat)
Procedure: [table] To produce a suitable active ingredient formulation, 1 part by weight of active ingredient is mixed with the stated amount of solvent and the concentrate is diluted to the desired concentration with water. Vessels are filled with sand, active ingredient solution, an egg/larvae suspension of the southern root-knot nematode (Meloidogyne incognita) and lettuce seeds. The lettuce seeds germinate and the plants develop. The galls develop on the roots. After 14 days, the nematicidal efficacy in % is determined by the formation of galls. 100% means that no galls were found; 0% means that the number of galls on the treated plants corresponds to the untreated control. [table] To produce an appropriate active ingredient formulation, 1 part by weight of active ingredient is mixed with the specified amount of solvent and the concentrate is diluted to the desired concentration with water. Vessels are filled with sand, active ingredient solution, an egg/larvae suspension of the southern root-knot nematode (Meloidogyne incognita) and lettuce seeds. The lettuce seeds germinate and the plants develop. The root-knots develop on the roots. After the desired time, the nematicidal effect is determined from the formation of root-knots in %. 100% means that no root-knots were found; 0% means that the number of root-knots on the treated plants corresponds to that on the untreated control.

Aphis gossypii = Aphis gossypii spray test (APHIGO), cotton plants; details: Aphis gossypii, 144 h, 6 dat, read-out: % efficacy
Procedure: as §2, with “Cotton” for “Rice”, “(Gossypium hirsutum) severely infested by the cotton aphid (Aphis gossypii)” for “(Oryza sativa)”, “concentration.” for “concentration and then populated with larvae of the brown planthopper (Nilaparvata lugens).”, “kill” for “efficacy”, “aphids” for “planthoppers”

Myzus persicae [5] = experiment: Myzus persicae spray test (MYZUPE S), bell pepper plants; details: 144 h, 4 ppm, 6 dat, read-out: % efficacy
Procedure: [table] To produce an appropriate active ingredient formulation, 1 part by weight of active ingredient is dissolved with the specified parts by weight of solvent and made up with water containing an emulsifier concentration of 1000 ppm until the desired concentration is attained. To produce further test concentrations, the mixture is diluted with emulsifier-containing water. If addition of ammonium salts or/and penetrants is required, these are each added to the preparation solution in a concentration of 1000 ppm. Bell pepper plants (Capsicum annuum) severely infested by the green peach aphid (Myzus persicae) are treated by spraying with the active ingredient formulation in the desired concentration. After the desired time, the kill in % is determined. 100% means that all the animals have been killed; 0% means that no animals have been killed.

Tetranychus urticae = Tetranychus urticae spray test, OP-resistant (TETRUR); details: Tetranychus urticae, 144 h; TETRUR, 100 g/ha, 6 dat; read-out: % efficacy
Procedure: [table] To produce a suitable active ingredient formulation, 1 part by weight of active ingredient is dissolved with the specified parts by weight of solvent and made up to the desired concentration with water containing an emulsifier concentration of 1000 ppm. To produce further test concentrations, the formulation is diluted with emulsifier-containing water. Discs of bean leaves (Phaseolus vulgaris) infested with all stages of the greenhouse red spider mite (Tetranychus urticae) are sprayed with an active ingredient formulation of the desired concentration. After 6 days, the efficacy in % is determined. 100% means that all the spider mites have been killed; 0% means that no spider mites have been killed.

Myzus persicae [6] = experiment: Myzus persicae drench test (MYZUPE D), savoy cabbage plants; details: soil, 240 h, 10 dat, read-out: % efficacy
Procedure: [table] To produce an appropriate active ingredient formulation, 1 part by weight of active ingredient is mixed with the specified amounts of solvent and emulsifier and the concentrate is diluted to the desired concentration with water, it being necessary to take into account the volume of soil into which drenching is effected. It should be ensured that a concentration of 40 ppm of emulsifier in the soil is not exceeded. For production of further test concentrations, the mixture is diluted with water. Savoy cabbage plants (Brassica oleracea) in soil pots, infested by all stages of the green peach aphid (Myzus persicae), are drenched with an active ingredient formulation of the desired concentration. After the desired time, the efficacy in % is determined. 100% means that all the aphids have been killed; 0% means that no aphids have been killed.

[7] = Phaedon cochleariae, foliar, 168 h
[8] = Phaedon cochleariae, foliar, 168 h, PHAECO, 20 g/ha, 7 dat
[9] = Nilaparvata lugens, 96 h, read-out: % efficacy

| Structure (SMILES) | % efficacy (Phaedon cochleariae [1]; PHAECO, 0.8 g/ha, 7 dat) [%] | % efficacy (Phaedon cochleariae [1]; PHAECO, 4 g/ha, 7 dat) [%] | pest or weed control at 100 g/ha (Phaedon cochleariae [1]; [7]) [%] | % efficacy (Nilaparvata lugens) [%] | pest or weed control at 100 ppm (Lucilia cuprina) [%] | % efficacy (Nezara viridula) [%] | pest or weed control at 0.8 ppm (Myzus persicae [2]) [%] | % efficacy (Phaedon cochleariae [3]) [%] | pest or weed control at 100 g/ha (Myzus persicae [4]) [%] | efficacy (nematicidal, gall formation) (Meloidogyne incognita) [%] | percent efficacy (larval mortality) at a fixed application rate at 20 g/ha (Phaedon cochleariae [1]; [8]) [%] | Emax at 20 g/ha (Nilaparvata lugens; [9]) [%] | Emax at 100 g/ha (Nilaparvata lugens; [9]) [%] | Emax at 4 ppm (Aphis gossypii) [%] | pest or weed control at 20 g/ha (Myzus persicae [4]) [%] | Emax at 4 ppm (Myzus persicae [5]) [%] | other results |
| --- | --- | --- | --- | --- | --- | --- | --- | --- | --- | --- | --- | --- | --- | --- | --- | --- | --- |
| CCS(=O)(=O)c1ccc(C(N)=O)nc1-c1nc2cc(C(F)(F)C(F)(F)F)nnc2n1C [Example I-02] | 83 | 100 | 100 | 90 | 100 | 90 | 100 | 100 | 100 | 90 | – | – | – | – | – | – | – |
| CCS(=O)(=O)c1ccc(C(=O)NC2CC2)nc1-c1nc2cc(C(F)(F)C(F)(F)F)nnc2n1C [Example I-03] | – | – | 100 | – | 100 | – | 100 | – | 100 | – | 100 | 80 | 100 | 95 | 90 | 100 | – |
| CCS(=O)(=O)c1ccc(C(N)=O)nc1-c1nc2cc(C(F)(F)C(F)(F)F)nnc2n1C [drawing 40, reference compound] | 0 | 33 | – | 50 | – | 0 | – | 0 | – | 0 | – | – | – | – | – | – | – |
| CCS(=O)(=O)c1ccc(C(=O)NC2CC2)nc1-c1nc2cc(C(F)(F)F)nnc2n1C [reference compound] | – | – | 33 | – | – | – | – | – | – | – | 33 | 0 | 0 | 0 | 0 | 0 | – |
| CCS(=O)(=O)c1ccc(NC(=O)N(C)C)nc1-c1nc2cc(C(F)(F)F)nnc2n1C [reference compound] | – | – | – | – | – | – | – | – | – | – | – | – | – | 15 | – | – | Emax at 4 g/ha (Nilaparvata lugens; Nilaparvata lugens, 96 h, 4 g/ha, read-out: % efficacy): 0%; Emax at 4 g/ha (Nezara viridula; Nezara viridula, 96 h, 4 g/ha, read-out: % efficacy): 0%; Emax at 20 ppm (Phaedon cochleariae [3]; Phaedon cochleariae, 168 h, read-out: % efficacy): 20%; Emax at 100 g/ha (Tetranychus urticae): 0%; Emax at 4 g/ha (Myzus persicae [4]; MYZUPE, 4 g/ha, 5 dat, read-out: % efficacy): 0% |
| CNC(=O)Nc1ccc(S(C)(=O)=O)c(-c2nc3cc(C(F)(F)F)nnc3n2C)n1 [reference compound] | – | – | 33 | – | – | – | – | – | – | – | – | – | – | – | – | – | Emax at 20 g/ha (Phaedon cochleariae [1]; Phaedon cochleariae, foliar, 168 h, PHAECO, 20 g/ha, 7 dat, read-out: % efficacy): 0%; Emax at 20 ppm (Aphis gossypii; 20 ppm): 0%; Emax at 20 g/ha (Nezara viridula; Nezara viridula, 96 h, 20 g/ha, read-out: % efficacy): 0%; Emax at 0.8 ppm (Myzus persicae [6]; 0.8 ppm): 0%; Emax at 4 ppm (Myzus persicae [6]; 4 ppm): 0% |
